In patent publication US20060223846A1, “Aza-bridged-bicyclic amino acid derivatives as alpha4 integrin antagonists” (priority 2005, published 2006):
pIC50: −log10 of the molar value.

How the values were obtained:
human α4β7 = target: T1, human α4β7 (Homo sapiens, UniProt P13612+P26010); test: α4β7-K562 Cell Adhesion Assay (α4β7 Mediated Adhesion/VCAM-1); format: cell-based; conditions: K562 cells expressing human α4β7 on recombinant hVCAM-1; read-out: α4β7 IC50
T1 construct: expressed in transfected cells
T1 sequence (P13612 34-1032): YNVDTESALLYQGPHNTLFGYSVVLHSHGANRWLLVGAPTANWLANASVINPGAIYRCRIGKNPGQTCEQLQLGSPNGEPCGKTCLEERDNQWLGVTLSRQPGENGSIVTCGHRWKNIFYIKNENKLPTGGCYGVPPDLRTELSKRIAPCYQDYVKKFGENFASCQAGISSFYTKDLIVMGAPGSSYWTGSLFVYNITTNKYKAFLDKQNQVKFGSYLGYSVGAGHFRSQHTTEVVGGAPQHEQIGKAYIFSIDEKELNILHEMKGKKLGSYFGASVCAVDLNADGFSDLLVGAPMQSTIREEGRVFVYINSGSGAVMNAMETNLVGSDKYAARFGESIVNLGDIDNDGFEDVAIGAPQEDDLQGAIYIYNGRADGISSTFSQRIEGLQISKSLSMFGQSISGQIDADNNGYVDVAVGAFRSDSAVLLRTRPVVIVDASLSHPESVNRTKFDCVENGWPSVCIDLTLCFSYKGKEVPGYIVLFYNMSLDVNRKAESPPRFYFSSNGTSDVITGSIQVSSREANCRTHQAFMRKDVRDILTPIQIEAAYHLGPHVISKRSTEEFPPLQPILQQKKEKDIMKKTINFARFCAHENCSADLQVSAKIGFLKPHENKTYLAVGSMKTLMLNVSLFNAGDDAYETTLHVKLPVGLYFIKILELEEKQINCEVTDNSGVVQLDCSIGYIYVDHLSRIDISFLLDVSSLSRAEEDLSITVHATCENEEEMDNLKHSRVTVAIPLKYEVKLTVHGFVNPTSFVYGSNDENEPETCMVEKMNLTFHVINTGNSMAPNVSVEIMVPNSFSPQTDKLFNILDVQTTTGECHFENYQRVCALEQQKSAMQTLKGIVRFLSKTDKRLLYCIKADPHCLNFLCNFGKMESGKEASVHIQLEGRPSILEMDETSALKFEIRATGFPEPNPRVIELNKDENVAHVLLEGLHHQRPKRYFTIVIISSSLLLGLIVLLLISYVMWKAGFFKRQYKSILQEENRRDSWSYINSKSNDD
T1 sequence (P26010 20-798): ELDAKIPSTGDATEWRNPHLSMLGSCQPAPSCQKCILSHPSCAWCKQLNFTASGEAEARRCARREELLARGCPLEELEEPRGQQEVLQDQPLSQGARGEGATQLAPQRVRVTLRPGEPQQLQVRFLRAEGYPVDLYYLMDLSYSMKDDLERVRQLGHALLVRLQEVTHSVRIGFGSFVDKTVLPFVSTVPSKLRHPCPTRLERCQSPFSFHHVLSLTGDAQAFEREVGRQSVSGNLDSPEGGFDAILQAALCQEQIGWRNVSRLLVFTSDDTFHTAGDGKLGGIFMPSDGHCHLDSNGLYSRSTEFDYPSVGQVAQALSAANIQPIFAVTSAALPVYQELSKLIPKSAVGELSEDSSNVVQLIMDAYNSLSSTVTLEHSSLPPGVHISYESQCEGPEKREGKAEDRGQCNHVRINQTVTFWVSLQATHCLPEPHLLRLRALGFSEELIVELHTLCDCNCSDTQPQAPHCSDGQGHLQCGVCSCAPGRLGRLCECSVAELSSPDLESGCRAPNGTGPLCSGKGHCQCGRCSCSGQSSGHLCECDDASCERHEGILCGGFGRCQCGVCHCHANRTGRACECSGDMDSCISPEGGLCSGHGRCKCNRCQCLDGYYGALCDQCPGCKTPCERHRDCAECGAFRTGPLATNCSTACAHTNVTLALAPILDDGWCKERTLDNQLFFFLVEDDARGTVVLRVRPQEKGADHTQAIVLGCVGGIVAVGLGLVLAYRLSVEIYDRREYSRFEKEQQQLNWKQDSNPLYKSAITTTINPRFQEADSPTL
Procedure: (§1) α4β7-K562 Cell Adhesion Assay (α4β7 Mediated Adhesion/VCAM-1) Immulon 96 well plates (Dynex) were coated with 100 μL recombinant hVCAM-1 at 4.0 μg/mL in 0.05 M NaCO3 buffer pH 9.0 overnight at 4° C. (R&D System). Plates were washed 3 times in PBS with 1% BSA and blocked for 1 h @ room temperature in this buffer. PBS was removed and compounds to be tested (50 μL) were added at 2× concentration. A stable cell line of K562 cells expressing human α4β7, (50 μL at 2×10^6/mL) labeled with 5 μM Calcein AM (Molecular Probes) for 1 h at 37° C., were added to each well and allowed to adhere for 1 h at room temperature. Plates were washed 3× in PBS+1% BSA and cells were lysed for 15 minutes in 100 μL of 1 M Tris pH 8.0 with 1% SDS. The plate was read at 485 nm excitation and 530 nm emission.

α4β1 = α4β1 (Homo sapiens, UniProt P05556+P13612); test: Ramos Cell Adhesion Assay (α4β1 Mediated Adhesion/VCAM-1); format: cell-based; parameters: Ramos cells, (50 μL at 2×10^6/mL) labeled with 5 μM Calcein AM; endogenous in cells; host or cells: Ramos cells; conditions: Ramos cells on recombinant hVCAM-1; read-out: α4β1 IC50
Sequence of α4β1 (P05556 21-798, one chain of several): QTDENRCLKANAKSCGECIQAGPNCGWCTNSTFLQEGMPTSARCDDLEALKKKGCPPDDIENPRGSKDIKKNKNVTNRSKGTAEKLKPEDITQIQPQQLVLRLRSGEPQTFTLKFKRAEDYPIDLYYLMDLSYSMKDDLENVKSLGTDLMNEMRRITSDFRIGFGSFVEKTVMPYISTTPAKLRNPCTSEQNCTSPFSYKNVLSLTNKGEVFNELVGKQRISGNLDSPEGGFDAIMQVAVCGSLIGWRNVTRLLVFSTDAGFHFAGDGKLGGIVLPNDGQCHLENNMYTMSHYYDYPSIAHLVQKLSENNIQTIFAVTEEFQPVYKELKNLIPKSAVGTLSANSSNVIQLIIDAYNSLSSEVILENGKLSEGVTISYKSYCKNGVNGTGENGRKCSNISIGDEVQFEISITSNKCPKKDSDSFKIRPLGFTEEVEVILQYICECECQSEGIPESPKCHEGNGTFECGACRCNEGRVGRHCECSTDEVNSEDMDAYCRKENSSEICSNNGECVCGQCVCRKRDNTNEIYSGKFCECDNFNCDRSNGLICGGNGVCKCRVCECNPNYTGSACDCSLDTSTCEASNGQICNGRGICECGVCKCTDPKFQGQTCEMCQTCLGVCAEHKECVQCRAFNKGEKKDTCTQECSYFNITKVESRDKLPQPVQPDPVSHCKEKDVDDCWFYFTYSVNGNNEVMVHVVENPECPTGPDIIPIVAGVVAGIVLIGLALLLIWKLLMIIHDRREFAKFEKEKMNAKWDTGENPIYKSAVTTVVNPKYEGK
Procedure: as §1, with “Ramos” for “α4β7-K562”, “α4β1” for “(α4β7”, “[…]” for “96”, “Systems).” for “System).”, “Ramos cells,” for “A stable cell line of K562 cells expressing human α4β7,”

SMILES	pIC50 (human α4β7)	pIC50 (α4β1)
CCCCCC12CCC(C(=O)N3C4CCC(CC4)C3C(=O)NC(Cc3ccc(NC(=O)c4c(Cl)cncc4Cl)cc3)C(=O)O)(CC1)CC2 (mixture of isomers) [Cpd 13]	< 5.30	< 5.30
O=C(Nc1ccc(CC(NC(=O)C2C3CCC(CC3)N2C(=O)Cc2ccccc2C(F)(F)F)C(=O)O)cc1)c1c(Cl)cncc1Cl (centres unmarked) [Cpd 2]	6.50	6.79
O=C(Nc1ccc(CC(NC(=O)C2C3CCC(CC3)N2C(=O)Cc2c(Cl)cccc2Cl)C(=O)O)cc1)c1c(Cl)cncc1Cl (centres unmarked) [Cpd 6]	6.41	6.63
COc1ccc(OC)c(C(=O)N2C3CCC(CC3)C2C(=O)NC(Cc2ccc(NC(=O)c3c(Cl)cncc3Cl)cc2)C(=O)O)c1 (centres unmarked) [Cpd 8]	5.99	6.73
O=C(Nc1ccc(CC(NC(=O)C2C3CCC(CC3)N2C(=O)c2ccccc2C(F)(F)F)C(=O)O)cc1)c1c(Cl)cncc1Cl (centres unmarked) [Cpd 12]	6.13	6.34
O=C(Nc1ccc(CC(NC(=O)C2C3CCC(CC3)N2C(=O)c2c(Cl)cccc2Cl)C(=O)O)cc1)c1c(Cl)cncc1Cl (centres unmarked) [Cpd 14]	< 5.30	< 5.30
O=C(Nc1ccc(CC(NC(=O)C2C3CCC(CC3)N2Cc2ccccc2)C(=O)O)cc1)c1c(Cl)cncc1Cl (centres unmarked) [Cpd 18]	6.51	6.27
O=C(Nc1ccc(CC(NC(=O)C2C3CCC(CC3)N2Cc2ccc(Cl)s2)C(=O)O)cc1)c1c(Cl)cncc1Cl (centres unmarked) [Cpd 19]	< 5.30	5.59
O=C(Nc1ccc(CC(NC(=O)C2C3CCC(CC3)N2C(=O)Nc2ccccc2Cl)C(=O)O)cc1)c1c(Cl)cncc1Cl (centres unmarked) [Cpd 22]	6.17	6.42
O=C(Nc1ccc(CC(NC(=O)C2C3CCC(CC3)N2C(=O)Nc2cccc(Cl)c2)C(=O)O)cc1)c1c(Cl)cncc1Cl (centres unmarked) [Cpd 23]	6.35	6.61
O=C(Nc1ccc(CC(NC(=O)C2C3CCC(CC3)N2C(=O)Nc2ccc(Cl)cc2)C(=O)O)cc1)c1c(Cl)cncc1Cl (centres unmarked) [Cpd 24]	6.13	6.23
O=C(Nc1ccc(CC(NC(=O)C2C3CCC(CC3)N2C(=O)NCc2ccccc2)C(=O)O)cc1)c1c(Cl)cncc1Cl (centres unmarked) [Cpd 25]	6.42	7.14
CC(C)(C)CC(=O)N1C2CCC(CC2)C1C(=O)NC(Cc1ccc(NC(=O)c2c(Cl)cncc2Cl)cc1)C(=O)O (centres unmarked) [Cpd 27]	6.08	6.41
CC(C)(C)OC(=O)N1CCN(CCC(=O)N2C3CCC(CC3)C2C(=O)NC(Cc2ccc(NC(=O)c3c(Cl)cncc3Cl)cc2)C(=O)O)CC1 (centres unmarked) [Cpd 35]	< 5.30	6.91

The next compounds have a higher pIC50 (human α4β7) than those just listed; values first:

pIC50 (human α4β7)	pIC50 (α4β1)	SMILES
6.82	6.36	O=C(Nc1ccc(CC(NC(=O)C2C3CCC(CC3)N2C(=O)c2ccccc2F)C(=O)O)cc1)c1c(Cl)cncc1Cl (mixture of isomers) [Cpd 9]
6.63	6.81	O=C(Nc1ccc(CC(NC(=O)C2C3CCC(CC3)N2C(=O)Cc2ccsc2)C(=O)O)cc1)c1c(Cl)cncc1Cl (mixture of isomers) [Cpd 60]
7.33	7.85	CC(C)(C)CC(=O)N1C2CCC(CC2)C1C(=O)NC(Cc1ccc(NC(=O)c2c(Cl)cncc2Cl)cc1)C(=O)O (single isomer, unassigned) [Cpd 34]
7.03	6.81	COc1cccc(CC(=O)N2C3CCC(CC3)C2C(=O)NC(Cc2ccc(NC(=O)c3c(Cl)cncc3Cl)cc2)C(=O)O)c1 (centres unmarked) [Cpd 1]
7.49	7.60	O=C(Nc1ccc(CC(NC(=O)C2C3CCC(CC3)N2C(=O)Cc2ccccn2)C(=O)O)cc1)c1c(Cl)cncc1Cl (centres unmarked) [Cpd 4]
7.21	7.70	O=C(Nc1ccc(CC(NC(=O)C2C3CCC(CC3)N2C(=O)Cc2cccnc2)C(=O)O)cc1)c1c(Cl)cncc1Cl (centres unmarked) [Cpd 5]
7.36	7.20	O=C(Nc1ccc(CC(NC(=O)C2C3CCC(CC3)N2C(=O)Cc2ccc3ccccc3c2)C(=O)O)cc1)c1c(Cl)cncc1Cl (centres unmarked) [Cpd 7]
6.73	6.07	O=C(Nc1ccc(CC(NC(=O)C2C3CCC(CC3)N2C(=O)c2cc(Cl)cc(Cl)c2)C(=O)O)cc1)c1c(Cl)cncc1Cl (centres unmarked) [Cpd 10]
7.41	7.16	Cc1ccnn1CC(=O)N1C2CCC(CC2)C1C(=O)NC(Cc1ccc(NC(=O)c2c(Cl)cncc2Cl)cc1)C(=O)O (centres unmarked) [Cpd 15]
6.54	6.59	O=C(Nc1ccc(CC(NC(=O)C2C3CCC(CC3)N2C(=O)Nc2ccccc2)C(=O)O)cc1)c1c(Cl)cncc1Cl (centres unmarked) [Cpd 20]
6.91	6.23	Cc1ccc(NC(=O)N2C3CCC(CC3)[C@H]2C(=O)N[C@@H](Cc2ccc(NC(=O)c3c(Cl)cncc3Cl)cc2)C(=O)O)cc1 [Cpd 21, 3-{4-[(3,5-dichloro-pyridine-4-carbonyl)-amino]-phenyl}-2-[(2-p-tolylcarbamoyl-2-aza-bicyclo[2.2.2]octane-3-carbonyl)-amino]-propionic acid]
6.82	7.05	O=C(Nc1ccc(CC(NC(=O)C2C3CCC(CC3)N2C(=O)CCC2CCCC2)C(=O)O)cc1)c1c(Cl)cncc1Cl (centres unmarked) [Cpd 28]
7.57	7.55	COc1ccccc1CC(=O)N1C2CCC(CC2)C1C(=O)NC(Cc1ccc(NC(=O)c2c(Cl)cncc2Cl)cc1)C(=O)O (centres unmarked) [Cpd 29]
7.15	6.94	COc1ccc(CC(=O)N2C3CCC(CC3)C2C(=O)NC(Cc2ccc(NC(=O)c3c(Cl)cncc3Cl)cc2)C(=O)O)cc1 (centres unmarked) [Cpd 30]
6.97	8.10	COc1cc(CC(=O)N2C3CCC(CC3)C2C(=O)NC(Cc2ccc(NC(=O)c3c(Cl)cncc3Cl)cc2)C(=O)O)cc(OC)c1 (centres unmarked) [Cpd 31]
7.52	7.92	O=C(Nc1ccc(CC(NC(=O)C2C3CCC(CC3)N2C(=O)Cc2cccs2)C(=O)O)cc1)c1c(Cl)cncc1Cl (centres unmarked) [Cpd 32]
7.18	7.26	O=C(Nc1ccc(CC(NC(=O)C2C3CCC(CC3)N2C(=O)Cc2csc3ccccc23)C(=O)O)cc1)c1c(Cl)cncc1Cl (centres unmarked) [Cpd 36]
